{"source": "patent US20220340564A1", "about": "“ANTIBACTERIAL COMPOUNDS” (Janssen Sciences Ireland Unlimited Company, priority 2019, published 2022)", "data": [{"system": "Mycobacterium tuberculosis strain EH4.0 expressing green-fluorescent protein (GFP)", "experiment": "microbe, parasite or virus in culture", "format": "cell-based", "conditions": "168 h, read-out: pIC50 (converted)", "units": {"IC50": "nM"}, "values": [{"smiles": "CCC1=NN(c2ccc(CNC(=O)c3c(CC)nc4ccc(Cl)cn34)cc2)CCN1S(=O)(=O)C(F)(F)F", "note": "[Compound 2]", "IC50": 15.8}, {"smiles": "CCc1nc2n(c1C(=O)NCc1ccc(N3CCN(S(=O)(=O)C(F)(F)F)C=N3)cc1)CCCC2", "note": "[Compound 3]", "IC50": 31.6}, {"smiles": "CCc1nc2ccc(Cl)cn2c1C(=O)NCc1ccc(N2C=NN(C)CC2)cc1", "note": "[Compound 4]", "IC50": 39.8}, {"smiles": "CCc1nc2ccc(Cl)cn2c1C(=O)NCc1ccc(N2CCN(S(=O)(=O)C(F)(F)F)C=N2)c(C)c1", "note": "[Compound 5]", "IC50": 7.94}, {"smiles": "O=C(NCc1ccc(N2CCN(S(=O)(=O)C(F)(F)F)C=N2)cc1)c1c(C2CC2)nc2ncc(Cl)cn12", "note": "[Compound 7]", "IC50": 63.1}, {"smiles": "CCc1nc2ncc(F)cn2c1C(=O)NCc1ccc(N2CCN(S(=O)(=O)C(F)(F)F)C=N2)cc1", "note": "[Compound 10]", "IC50": 63.1}, {"smiles": "COc1ccn2nc(C)c(C(=O)NCc3ccc(N4CCN(S(=O)(=O)C(F)(F)F)C=N4)cc3)c2c1", "note": "[Compound 14]", "IC50": 6.31}, {"smiles": "CCc1nc2ccc(Cl)cn2c1C(=O)NCc1ccc(N2CCN(C)C=N2)cc1", "note": "[Compound 15]", "IC50": 25.1}, {"smiles": "CCc1nc2ccc(Cl)cn2c1C(=O)NCc1ccc(N2CCN(S(=O)(=O)CC(C)C)C=N2)cc1", "note": "[Compound 17]", "IC50": 20}, {"smiles": "CCc1nc2ccc(Cl)cn2c1C(=O)NCc1ccc(N2CCN(C(C)=O)C=N2)cc1", "note": "[Compound 18]", "IC50": 15.8}, {"smiles": "CCc1nc2ccc(Cl)cn2c1C(=O)NCc1ccc(N2CCN(S(=O)(=O)CCOC)C=N2)cc1", "note": "[Compound 19]", "IC50": 39.8}, {"smiles": "CCc1nc2ccc(Cl)cn2c1C(=O)NCc1ccc(N2CCN(S(=O)(=O)C(F)(F)F)C(C)=N2)cc1", "note": "[Compound 21]", "IC50": 2.51}, {"smiles": "CCc1nc2ccc(Cl)cn2c1C(=O)NCc1ccc(N2CCN(S(=O)(=O)C(F)(F)F)C=N2)cc1OC", "note": "[Compound 22]", "IC50": 398}, {"smiles": "CCc1nc2ncc(Cl)cn2c1C(=O)NCc1ccc(N2CCN(S(=O)(=O)CC(C)C)C=N2)cc1", "note": "[Compound 23]", "IC50": 12.6}, {"smiles": "CCc1nc2ncc(Cl)cn2c1C(=O)NCc1ccc(N2CCN(C(C)=O)C=N2)cc1", "note": "[Compound 24]", "IC50": 15.8}, {"smiles": "CCc1nc2ncc(Cl)cn2c1C(=O)NCc1ccc(N2CCN(S(=O)(=O)C(F)(F)F)C(OC)=N2)cc1", "note": "[Compound 27]", "IC50": 2}, {"smiles": "CCc1nc2ncc(COC)cn2c1C(=O)NCc1ccc(N2CCN(S(=O)(=O)C(F)(F)F)C=N2)cc1", "note": "[Compound 33]", "IC50": 25.1}, {"smiles": "COC1=NN(c2ccc(CNC(=O)c3c(C)nn4ccc(OC)cc34)cc2)CCN1S(=O)(=O)C(F)(F)F", "note": "[Compound 34]", "IC50": 10}, {"smiles": "CCc1nc2ccc(Cl)cn2c1C(=O)NCc1cc(F)c(N2CCN(S(=O)(=O)C(F)(F)F)C=N2)c(F)c1", "note": "[Compound 35]", "IC50": 5.01}, {"smiles": "CCc1nc2ccc(Cl)cn2c1C(=O)NCc1ccc(N2CCN(S(=O)(=O)C(F)(F)F)C(OC)=N2)c(F)c1", "note": "[Compound 37]", "IC50": 3.98}, {"smiles": "CCc1nc2ccc(Cl)cn2c1C(=O)NCc1ccc(N2CCN(C=O)C=N2)cc1", "note": "[Compound 38]", "IC50": 63.1}, {"smiles": "CCc1nc2c(Cl)c(OC)ccn2c1C(=O)NCc1ccc(N2CCN(S(=O)(=O)C(F)(F)F)C=N2)cc1", "note": "[Compound 39]", "IC50": 79.4}, {"smiles": "CCc1nc2ccc(Cl)cn2c1C(=O)NCc1ccc(N2CCN(S(=O)(=O)C(F)(F)F)C(CCO)=N2)cc1", "note": "[Compound 40]", "IC50": 63.1}, {"smiles": "CCc1nc2ncc(Cl)cn2c1C(=O)NCc1ccc(N2CCN(S(=O)(=O)C(F)(F)F)C(CCO)=N2)cc1", "note": "[Compound 41]", "IC50": 50.1}, {"smiles": "CCc1nc2ccc(OC)cn2c1C(=O)NCc1ccc(N2CCN(S(=O)(=O)C(F)(F)F)C=N2)cc1", "note": "[Compound 42]", "IC50": 6.31}, {"smiles": "CCOc1ccc2nc(CC)c(C(=O)NCc3ccc(N4CCN(S(=O)(=O)C(F)(F)F)C=N4)cc3)n2c1", "note": "[Compound 43]", "IC50": 10}, {"smiles": "CCc1nc2cc(Cl)c(OC)cn2c1C(=O)NCc1ccc(N2CCN(S(=O)(=O)C(F)(F)F)C(OC)=N2)cc1", "note": "[Compound 45]", "IC50": 39.8}, {"smiles": "CCc1nc2cc(OC)c(Cl)cn2c1C(=O)NCc1ccc(N2CCN(S(=O)(=O)C(F)(F)F)C(OC)=N2)c(F)c1", "note": "[Compound 46]", "IC50": 100}, {"smiles": "CCc1nc2ccc(OC)cn2c1C(=O)NCc1ccc(N2CCN(S(=O)(=O)C(F)(F)F)C(OC)=N2)c(F)c1", "note": "[Compound 48]", "IC50": 1.58}]}]}
